Measurements reported in PMC8434134, “Biflavonoids from Selaginella doederleinii as Potential Antitumor Agents for Intervention of Non-Small Cell Lung Cancer” (Molecules, 2021).

How the values were obtained:
A549 cells [1] = experiment: MTT antiproliferative assay, A549; type: cell-based, human; conditions: mean of n = 3
Source text: (§1) To evaluate the anti-NSCLC activity of compounds 1–5, we tested their inhibitory effect on the proliferation of two NSCLC cell lines (A549 and H1299) as well as human normal embryonic lung cell line MRC-5 by the MTT assay using Cis-platin (DDP) as a positive control. […] Among them, compounds 1–3 were further studied for their potential apoptosis-mediated death of A549 cells because of their promising antiproliferative activity against NSCLC cells.
(§2) Human lung carcinoma cell lines (A549), human lung adenocarinoma epithelial cell lines (H1299) and human normal embryonic lung cell lines (MRC-5) were purchased from the Chinese Academy of Sciences (Shanghai). H1299 and MRC-5 cells were maintained in RPMI1640 medium, and A549 cell lines were maintained in MEN medium. Both media were supplemented with 10% fetal bovine serum. All of the cell lines were grown at 37 °C in a 5% CO2 atmosphere. The cell lines mentioned above were checked for mycoplasma contamination, and no contamination was observed.
(§3) Cytotoxicity of test compounds was assessed by the MTT assay. A549, H1299 and MRC-5 cells at a final density (3000 cells/well) were placed in 96-well cell plates and treated with or without different concentrations of the test compounds for 24 h. At the end of the treatment, 3-(4,5-dimethyl-2-thiazolyl)-2,5-diphenyl-2-H-tetrazolium bromide (MTT, […], 5 mg/mL) was added into each well, and the cells were further incubated for 4 h. The resulting formazan crystals were dissolved in […] of DMSO and the absorbance was read spectrophotometrically at 570 nm using an enzyme-linked immunosorbent assay plate reader. Experiments were conducted in triplicate. Inhibition rate (%) = [(Acontrol − Atreated)/Acontrol] × 100%. IC50 value represents the half of maximal inhibitory concentration.

MRC-5 cells = experiment: MTT cytotoxicity assay, non-cancer MRC-5; type: cell-based; conditions: mean of n = 3, non-cancer cells
Source text: as §1, §2, §3

H1299 cells = experiment: MTT antiproliferative assay, H1299; type: cell-based, human; conditions: mean of n = 3
Source text: as §1, §2, §3

A549 cells [2] = experiment: FITC-Annexin V/PI apoptosis assay by flow cytometry; type: cell-based, human; conditions: 3 μM, 24 h
Method: Subsequently, to further verify the apoptosis induction potential of compounds 1–3, quantification of Annexin V-FITC/PI double positive cells was performed using flow cytometry analysis. A549 cells were incubated with indicated compounds, and the percentages of apoptotic A549 cells were determined by FITC-Annexin V and PI staining and flow cytometry.
Cells were incubated in six-well plates (1 × 10^5/well) and treated with vehicle control (i.e., 1% DMSO in buffer) or compounds 1–3 at 3 μM for 24 h, respectively. The collected cells were harvested, washed with PBS, and then stained with FITC-Annexin-V and PI. Apoptosis was determined with flow cytometry.

survivin = experiment: Western blot, survivin expression in A549 cells; type: cell-based, human; conditions: 3 μM, 24 h, GAPDH as control
Method: (§4) The X-linked mammalian inhibitor of apoptosis protein (XIAP) and survivin, known as the inhibitor-of-apoptosis protein (IAP) members, play an important regulatory role in the caspase-dependent apoptosis. Therefore, the Western blot assay experiments were further performed to examine whether the inhibition of XIAP and survivin were involved in compounds 1–3 induced apoptosis.
(§5) A549 cells (1 × 10^5/well) were cultured in six-well plates overnight and treated in triplicate with vehicle DMSO (0.1%, v/v) alone, or with indicated compound at 3 μM for 24 h. The cells were harvested and lysed with cell lysis buffer containing protease and phosphatase inhibitor cocktails (Beyotime, Shanghai, China). The concentrations of protein were determined using a BCA protein assay kit (Beyotime, Shanghai, China) and equalized before loading. Samples were denatured and subjected to SDS-PAGE gels followed by transfer to PVDF membrane and probed with specific antibodies against cleaved caspase-3, caspase-3, survivin, XIAP, β-actin, and GAPDH (Abcam, Shanghai, China), and then incubated with the secondary antibodies diluted in TBST. Finally, the protein bands were detected with ECL Western Blotting Kit according to the manufacturer’s specifications. Eventually, films were obtained and the light density of the target bar was analyzed by Image J software.

caspase-3 = experiment: Western blot, caspase-3 level in A549 cells; type: cell-based, human; conditions: 3 μM, 24 h, β-actin as control
Method: (§6) Furthermore, to elucidate the mechanism underlying the apoptosis-inducing activity of compounds 1–3, we examined their regulatory effect on the expression of caspase-3/cleaved-caspase-3, which are hallmarks of apoptosis.
as §5

XIAP = experiment: Western blot, XIAP expression in A549 cells; type: cell-based, human; conditions: 3 μM, 24 h, GAPDH as control
Method: as §4, §5

A549 cells [3] = experiment: Cell cycle analysis, PI staining and flow cytometry; type: cell-based, human; conditions: 24 h
Method: In addition to apoptosis, the induction of cell cycle arrest is an important means to control the growth and development of cancer cells. To investigate whether 3 suppressed the cells’ growth by arresting the cell cycle, we performed the experiment where cell cycle distribution was analyzed with flow cytometry after staining the DNA with propidium iodide (PI).
A549 cells were treated with vehicle control (i.e., 1% DMSO in buffer) or compound 3 at indicated concentration for 24 h, respectively. The cells were harvested, washed, then fixed with 70% ethanol at −20 °C for 8 h, and incubated with PI/RNase staining buffer (BD Pharmingen) for 15 min at room temperature (25 °C). The DNA content in the different groups of cells was assessed with flow cytometry and analyzed by the software MODFIT.

cleaved caspase-3 = experiment: Western blot, cleaved caspase-3 level in A549 cells; type: cell-based, human; conditions: 3 μM, 24 h, β-actin as control
Method: as §6, §5

[4] = Homo sapiens, A549, 24 h treatment
[5] = Homo sapiens, MRC5, 24 h treatment
[6] = Homo sapiens, NCI-H1299, 24 h treatment

O=C1C[C@@H](c2ccc(Oc3c(-c4ccc(O)cc4)oc4cc(O)cc(O)c4c3=O)cc2)Oc2cc(O)cc(O)c21 [Compound 1, (2″S)-2″,3″-dihydrodelicaflavone]
IC50 (A549 cells [1]; [4]): 3.1 µM
IC50 (MRC-5 cells; [5]): > 100 µM
IC50 (H1299 cells; [6]): 7.3 µM
apoptosis incidence in A549 cells (A549 cells [2]): 41.3%

Cc1c(O)cc2oc(-c3ccc(Oc4c(-c5ccc(O)cc5)oc5cc(O)cc(O)c5c4=O)cc3)cc(=O)c2c1O [Compound 2, 6″-methyldelicaflavone]
IC50 (A549 cells [1]; [4]): 2.8 µM
IC50 (MRC-5 cells; [5]): > 100 µM
IC50 (H1299 cells; [6]): 7.3 µM
apoptosis incidence in A549 cells (A549 cells [2]): 80.3%

COc1cc(O)c2c(=O)c(Oc3ccc(-c4cc(=O)c5c(O)cc(O)cc5o4)cc3)c(-c3ccc(O)cc3)oc2c1 [Compound 3, 7-O-methyldelicaflavone]
IC50 (A549 cells [1]; [4]): 2.3 µM
IC50 (MRC-5 cells; [5]): > 100 µM
IC50 (H1299 cells; [6]): 4 µM
level of survivin expression (survivin): suppressed
relative level of caspase-3 (caspase-3): upregulation
level of XIAP expression (XIAP): suppressed
G0/G1-phase cells (gate C in Figure 9A) (A549 cells [3]; 5 μM, control 60.8%): 45.3%
cell cycle arrest, phase (A549 cells [3]): S phase
percentage of cells at the S phase (A549 cells [3]; control 10.6%, concentration not in the sentence (5 μM by Figure 9)): 24.8%
apoptosis incidence in A549 cells (A549 cells [2]): 82.4%
relative level of cleaved caspase-3 (cleaved caspase-3): upregulation

Cc1c(O)cc2c(c1O)C(=O)C[C@@H](c1ccc(Oc3c(-c4ccc(O)cc4)oc4cc(O)cc(O)c4c3=O)cc1)O2 [Compound 4, (2″S)-6″-methyl-2″,3″-dihydrodelicaflavone]
IC50 (A549 cells [1]; [4]): 3.1 µM
IC50 (MRC-5 cells; [5]): 58.2 µM
IC50 (H1299 cells; [6]): 6.8 µM

O=c1cc(-c2ccc(Oc3c(-c4ccc(O)cc4)oc4cc(O)cc(O)c4c3=O)cc2)oc2cc(O)cc(O)c12 [Compound 5, delicaflavone]
IC50 (A549 cells [1]; [4]): 7.9 µM
IC50 (MRC-5 cells; [5]): 36.8 µM
IC50 (H1299 cells; [6]): 8.4 µM

N.N.[Cl][Pt][Cl] [DDP, Cis-platin, reference compound]
IC50 (A549 cells [1]; 24 h treatment): 13.3 µM
IC50 (MRC-5 cells; 24 h treatment): 49 µM
IC50 (H1299 cells; 24 h treatment): 24.5 µM
relative level of caspase-3 (caspase-3): enhanced
relative level of cleaved caspase-3 (cleaved caspase-3): enhanced
